Results taken from patent publication US11484539B2, “Compounds and their uses for alleviating menopause-associated symptoms” (Estetra SPRL, priority 2018, dated 2022).

Test system: post-menopausal women
Test: Weekly frequency of moderate to severe VMS, dose-finding study
Format: in vivo
Conditions: for Difference with placebo, LS adjusted mean, absolute change in weekly frequency of moderate to severe VMS / Difference with placebo, LS adjusted mean, relative change in weekly frequency of moderate to severe VMS: 5 mg E4 vs placebo; for LS adjusted mean change from baseline in weekly frequency of moderate to severe VMS / LS adjusted mean relative change (%) from baseline in weekly frequency of moderate to severe VMS: 10 mg E4
Text: To determine the Minimum Effective Dose (MED), firstly the selection criteria required that patients presented at least 7 moderate to severe VMS/day or at least 50 moderate to severe VMS/week in the week preceding randomization. Secondly, a placebo group was included in a double-blind fashion. Thirdly, the total patient number was such that statistical significance could be obtained between separate arms of the study. Fourthly, the absolute change from baseline in weekly frequency of moderate to severe VMS was taken into account. An analysis of covariance (ANCOVA) was performed based on the untransformed change in weekly frequency of moderate to severe VMS from baseline. Finally, the change in severity from baseline was evaluated. For this, the Severity Scoring System of VMS was documented by the subjects as follows: • a score of Mild (1) for a sensation of heat without sweating; • a score of Moderate (2) for a sensation of heat with sweating/the subject is able to continue activity; and • a score of Severe (3) for a sensation of heat with sweating/which causes cessation of activity.
Enrolment was approximately 18 months. Individual subject participation was up to 27 weeks: up to 6 weeks pre-screening and washout, up to 4 weeks screening and run-in period, up to 91 days (13 weeks) of E4/placebo treatment followed by 2 weeks (14 days) of progestin therapy and a Follow up visit 1 week after completion of progestin therapy in non-hysterectomised subjects only.
To define the minimum effective dose (MED) of the oral dose of E4 by evaluating changes in frequency and in severity of moderate to severe vasomotor symptoms (VMS).
This was a prospective, multicentre, randomised, placebo-controlled, double-blinded, dose-finding study.
Eligible subjects were hysterectomised and non-hysterectomised post-menopausal women aged 40 to 65 years, inclusive, presenting at least 7 moderate to severe hot flushes/day or at least 50 moderate to severe hot flushes/week.
The subjects have met all of the following inclusion criteria at the randomization visit. These criteria were assessed during the screening period: • 1. Women aged 40 to 65 years, inclusive, presenting at least 7 moderate to severe hot flushes/day or at least 50 moderate to severe hot flushes/week in the week preceding randomization. • 2. Body Mass Index (BMI) between 18.0 and 35.0 kg/m^2, inclusive. • 3. Post-menopausal status defined as levels of follicle stimulating hormone (FSH) >40 IU/L and: • amenorrhoea for at least 12 consecutive months or, • amenorrhoea for at least 6 months with estradiol (E2)<20 pg/mL or, • at least 6 weeks post-surgical bilateral oophorectomy with or without hysterectomy with a copy of the pathology report or a statement on letterhead from the subject's physician documenting both ovaries were removed is required. • 4. For non-hysterectomised women: intact uterus with bi-layer endometrial thickness […] on TVUS. • 5. Negative pregnancy test. • 6. Good physical and mental health, in the judgement of the Principal Investigator (PI), on the basis of medical, surgical and gynaecological history, physical examination, gynaecological examination, clinical laboratory, and vital signs. • 7. Subject has provided signed and dated written informed consent before admission to the study. • 8. Subject is able to understand and comply with the protocol requirements, instructions, and protocol-stated restrictions. Exclusion Criteria:
All treatments (Estetrol, hereinafter, E4, [2.5 mg, 5 mg, 10 mg, 15 mg] capsule) were administered once daily (QD) per os for at least 12 consecutive weeks until the last biological assessments (Day 91 maximum) had been performed.
In order to analyse the data recorded in this study, treatment groups have been compared using an ANCOVA (analysis of covariance) with respect to the change in weekly frequency of moderate to severe VMS from baseline to weeks 4 and 12. […]

[1] = week 4, ANCOVA with study centre
[2] = week 12, ANCOVA with study centre

Question: Which “Relative change (% from baseline) in weekly frequency of moderate to severe VMS, mean” value (from here on “Relative change (% from baseline)”) (5 mg E4 QD per os, week 2) does the source give for `C[C@]12CC[C@@H]3c4ccc(O)cc4CC[C@H]3[C@@H]1[C@@H](O)[C@@H](O)[C@@H]2O` [E4, 1,3,5 (10)-estratrien-3,15alpha,16alpha,17beta-tetrol] here?
Answer: Its value is −33%.

Question: And the “Mean change from baseline in weekly frequency of moderate to severe VMS” value (5 mg E4 QD per os, week 3)?
Answer: Its value is −24.38.

Question: And the “Relative change (% from baseline)” value (5 mg E4 QD per os, week 3)?
Answer: The value was −38%.

Question: What about the “Mean change from baseline in weekly frequency of moderate to severe VMS” value (5 mg E4 QD per os, week 4) of the same compound?
Answer: The value was −27.57.

Question: And the “Relative change (% from baseline)” value (5 mg E4 QD per os, week 4)?
Answer: The value was −43%.

Question: What about the “Mean change from baseline in weekly frequency of moderate to severe VMS” value (5 mg E4 QD per os, week 5) of the same compound?
Answer: Its value is −30.70.

Question: What about the “Relative change (% from baseline)” value (5 mg E4 QD per os, week 5) of the same compound?
Answer: Its value is −47%.

Question: What about the “Mean change from baseline in weekly frequency of moderate to severe VMS” value (5 mg E4 QD per os, week 6) of the same compound?
Answer: Its value is −38.02.

Question: And the “Relative change (% from baseline)” value (5 mg E4 QD per os, week 6)?
Answer: The value was −57%.

Question: And the “Mean change from baseline in weekly frequency of moderate to severe VMS” value (5 mg E4 QD per os, week 7)?
Answer: Its value is −38.23.

Question: What about the “Relative change (% from baseline)” value (5 mg E4 QD per os, week 7) of the same compound?
Answer: Its value is −57%.

Question: And the “Mean change from baseline in weekly frequency of moderate to severe VMS” value (5 mg E4 QD per os, week 8)?
Answer: Its value is −38.55.

Question: What about the “Relative change (% from baseline)” value (5 mg E4 QD per os, week 8) of the same compound?
Answer: Its value is −57%.

Question: And the “Mean change from baseline in weekly frequency of moderate to severe VMS” value (5 mg E4 QD per os, week 9)?
Answer: Its value is −39.34.

Question: What about the “Relative change (% from baseline)” value (5 mg E4 QD per os, week 9) of the same compound?
Answer: The value was −59%.

Question: What about the “Mean change from baseline in weekly frequency of moderate to severe VMS” value (5 mg E4 QD per os, week 10) of the same compound?
Answer: The value was −39.83.

Question: And the “Relative change (% from baseline)” value (5 mg E4 QD per os, week 10)?
Answer: The value was −60%.

Question: What about the “Mean change from baseline in weekly frequency of moderate to severe VMS” value (5 mg E4 QD per os, week 11) of the same compound?
Answer: Its value is −41.46.

Question: And the “Relative change (% from baseline)” value (5 mg E4 QD per os, week 11)?
Answer: The value was −63%.

Question: What about the “Mean change from baseline in weekly frequency of moderate to severe VMS” value (5 mg E4 QD per os, week 12) of the same compound?
Answer: The value was −40.60.

Question: What about the “Relative change (% from baseline)” value (5 mg E4 QD per os, week 12) of the same compound?
Answer: Its value is −62%.

Question: And the “Difference with placebo, LS adjusted mean, absolute change in weekly frequency of moderate to severe VMS” value [1]?
Answer: Its value is 6.359.

Question: What about the “Difference with placebo, LS adjusted mean, relative change in weekly frequency of moderate to severe VMS” value [1] of the same compound?
Answer: Its value is 0.06833.

Question: What about the “Difference with placebo, LS adjusted mean, absolute change in weekly frequency of moderate to severe VMS” value (week 4, without site effect) of the same compound?
Answer: Its value is 5.781.

Question: And the “Difference with placebo, LS adjusted mean, relative change in weekly frequency of moderate to severe VMS” value (week 4, without site effect)?
Answer: Its value is 0.05854.

Question: And the “Difference with placebo, LS adjusted mean, absolute change in weekly frequency of moderate to severe VMS” value [2]?
Answer: The value was 3.054.

Question: And the “Difference with placebo, LS adjusted mean, relative change in weekly frequency of moderate to severe VMS” value [2]?
Answer: The value was 0.03978.

Question: What about the “Difference with placebo, LS adjusted mean, absolute change in weekly frequency of moderate to severe VMS” value (week 12, without site effect) of the same compound?
Answer: Its value is 2.918.

Question: What about the “Difference with placebo, LS adjusted mean, relative change in weekly frequency of moderate to severe VMS” value (week 12, without site effect) of the same compound?
Answer: Its value is 0.03671.

Question: And the “LS adjusted mean change from baseline in weekly frequency of moderate to severe VMS” value (shortened to “LS adjusted mean change from baseline”) [1]?
Answer: Its value is −35.37.

Question: And the LS adjusted mean relative change (%) from baseline in weekly frequency of moderate to severe VMS [1]?
Answer: Its LS adjusted mean relative change (%) from baseline in weekly frequency of moderate to severe VMS is -54.5%.

Question: And the “LS adjusted mean change from baseline” value (week 4, without site effect)?
Answer: The value was −35.87.

Question: And the LS adjusted mean relative change (%) from baseline in weekly frequency of moderate to severe VMS (week 4, without site effect)?
Answer: The LS adjusted mean relative change (%) from baseline in weekly frequency of moderate to severe VMS was -55.5%.

Question: What about the “LS adjusted mean change from baseline” value [2] of the same compound?
Answer: Its value is −45.84.

Question: And the LS adjusted mean relative change (%) from baseline in weekly frequency of moderate to severe VMS [2]?
Answer: The LS adjusted mean relative change (%) from baseline in weekly frequency of moderate to severe VMS was -70%.

Question: And the “LS adjusted mean change from baseline” value (week 12, without site effect)?
Answer: The value was −46.53.

Question: And the LS adjusted mean relative change (%) from baseline in weekly frequency of moderate to severe VMS (week 12, without site effect)?
Answer: Its LS adjusted mean relative change (%) from baseline in weekly frequency of moderate to severe VMS is -71.7%.

Question: And the “Mean change from baseline in weekly frequency of moderate to severe VMS” value (10 mg E4 QD per os, week 1)?
Answer: The value was −13.37.

Question: And the “Relative change (% from baseline)” value (10 mg E4 QD per os, week 1)?
Answer: Its value is −21%.

Question: And the “Mean change from baseline in weekly frequency of moderate to severe VMS” value (10 mg E4 QD per os, week 2)?
Answer: Its value is −23.47.

Question: What about the “Relative change (% from baseline)” value (10 mg E4 QD per os, week 2) of the same compound?
Answer: The value was −37%.

Question: What about the “Mean change from baseline in weekly frequency of moderate to severe VMS” value (10 mg E4 QD per os, week 3) of the same compound?
Answer: Its value is −31.34.

Question: What about the “Relative change (% from baseline)” value (10 mg E4 QD per os, week 3) of the same compound?
Answer: Its value is −48%.

Question: What about the “Mean change from baseline in weekly frequency of moderate to severe VMS” value (10 mg E4 QD per os, week 4) of the same compound?
Answer: Its value is −36.38.

Question: What about the “Relative change (% from baseline)” value (10 mg E4 QD per os, week 4) of the same compound?
Answer: Its value is −55%.

Question: What about the “Mean change from baseline in weekly frequency of moderate to severe VMS” value (10 mg E4 QD per os, week 5) of the same compound?
Answer: Its value is −39.07.

Question: What about the “Relative change (% from baseline)” value (10 mg E4 QD per os, week 5) of the same compound?
Answer: Its value is −60%.

Question: And the “Mean change from baseline in weekly frequency of moderate to severe VMS” value (10 mg E4 QD per os, week 6)?
Answer: The value was −42.56.

Question: And the “Relative change (% from baseline)” value (10 mg E4 QD per os, week 6)?
Answer: Its value is −65%.

Question: And the “Mean change from baseline in weekly frequency of moderate to severe VMS” value (10 mg E4 QD per os, week 7)?
Answer: Its value is −43.30.

Question: What about the “Relative change (% from baseline)” value (10 mg E4 QD per os, week 7) of the same compound?
Answer: The value was −66%.
